Test results taken from patent US7713988B2, “4,5-diphenyl-pyrimidinylamino substituted carboxylic acids, method for the production and use thereof as medicaments” (Sanofi-Aventis, priority 2006, dated 2010).

Each compound was assayed against T1, GPCR GPR40 (Homo sapiens, UniProt O14842) (assay: In vitro FLIPR assay with recombinant cells which express the GPCR GPR40 (intracellular Ca2+ change)). Conditions: 100 μM test substance; recombinant HEK293 cells expressing GPR40; relative to control (0%: no test substance; 100%: 10 μM reference agonist linoleic acid).
T1 construct: expressed in transfected cells; host or cells: HEK293
T1 sequence (O14842 whole entry): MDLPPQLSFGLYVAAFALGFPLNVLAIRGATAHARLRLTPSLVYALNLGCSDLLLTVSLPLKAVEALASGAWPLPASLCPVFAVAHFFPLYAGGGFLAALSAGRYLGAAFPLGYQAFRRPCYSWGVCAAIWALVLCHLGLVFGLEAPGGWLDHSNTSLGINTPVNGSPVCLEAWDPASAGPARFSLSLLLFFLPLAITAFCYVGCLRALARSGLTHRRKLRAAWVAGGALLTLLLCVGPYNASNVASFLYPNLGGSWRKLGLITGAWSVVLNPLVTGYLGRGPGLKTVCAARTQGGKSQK
Type: cell-based
Method: In vitro FLIPR assay with recombinant cells which express the GPCR GPR40 Function-testing assays were carried out by means of the FLIPR technique (“Fluorescence Imaging Plate Reader”, Molecular Devices Corp.). For this purpose, agonist-induced changes in the intracellular concentration of Ca^2+ in recombinant HEK293 cells which expressed the GPCR GPR40 were determined.
For the investigations, cells were seeded in 96-well microtiter plates (60 000 cells/well) and allowed to grow overnight. The medium was removed and the cells were incubated in buffer which contained the fluorescent dye fluo-4. After this loading with dye, the cells were washed, test substance was added, and changes in the intracellular Ca^2+ concentration were measured in the FLIPR instrument. Results have been presented as percentage change relative to the control (0%: no test substance added; 100%:10 μM reference agonist linoleic acid added).

Compared with `O=C(O)C1CCC(CNc2ncc(-c3ccccc3)c(-c3ccccc3)n2)CC1` (stereo not shown) [Example 1, 4-[(4,5-Diphenylpyrimidin-2-ylamino)methyl]cyclohexanecarboxylic acid], `O=C(O)C(F)(F)F.O=C(O)CCCCCNc1ncc(-c2ccccc2)c(-c2ccccc2)n1` [Example 5, 6-(4,5-Diphenylpyrimidin-2-ylamino)hexanoic acid trifluoroacetate] is lower in “% activation @ 100 μM” value: 79% for the first, 73% for the second.

First: O=C(O)C(F)(F)F.O=C(O)CCCCCCCNc1ncc(-c2ccccc2)c(-c2ccccc2)n1 [Example 3, 8-(4,5-Diphenylpyrimidin-2-ylamino)octanoic Acid Trifluoroacetate]
Second: O=C(O)C(F)(F)F.O=C(O)CCCCCCNc1ncc(-c2ccccc2)c(-c2ccccc2)n1 [Example 4, 7-(4,5-Diphenylpyrimidin-2-ylamino)heptanoic Acid Trifluoroacetate]
The “% activation @ 100 μM” value of the first is higher: 104% for the first, 94% for the second.
